Data: patent publication US20260115185A1, “QUINOLINE DERIVATIVES WHICH ACT AS KAPPA-OPIOID RECEPTOR ANTAGONISTS” (The Scripps Research Institute, priority 2023, published 2026)

How the values were obtained:
[1] = target: T1, kappa opioid receptor (KOR) (Homo sapiens, UniProt P41145); assay: OPRKappa 1 Tango B-Arrestin Assay, antagonist mode (Tango OPRK1-bla U2OS cells, U50488 EC80 challenge); format: cell-based; settings: for Selectivity (MOR/KOR): Kappa selectivity, MOR IC50 / KOR IC50; for IC50: antagonist mode, Tango OPRK1-bla U2OS cells, 6 nM U50488 challenge
T1 construct: host or cells: U2OS (Tango OPRK1-bla U2OS)
In short: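 Tango OPRK1-bla U2OS cells, β-arrestin recruitment read as β-lactamase FRET (CCF4-AM, 460/590 nm emission). Compounds, 10-point 1:3 series from nominal 10 µM in quadruplicate, preincubated 30 min at 37 °C, then challenged with U50488 at 6 nM final (EC80) for 4 h; percent inhibition from median ratio.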

mu opioid receptor (MOR) = target: T2, mu opioid receptor (MOR) (Homo sapiens, UniProt P35372); assay: OPRMu1 Discover X β-arrestin Assay, antagonist mode (U2OS cells, DAMGO EC80 challenge); format: cell-based
T2 construct: host or cells: U2OS (Discover X OPRMu1-U2OS, PathHunter)
In short: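 PathHunter U2OS cells with β-gal fragment-complementation readout for β-arrestin recruitment to OPRMu1. Cells were preincubated with compound (10-point, 1:3 series from nominal 10 micromolar) for 30 min at 37 °C, then challenged with 303 nM DAMGO (EC80) for 3 h. Luminescence gave percent inhibition.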

T2 sequence (P35372 whole entry): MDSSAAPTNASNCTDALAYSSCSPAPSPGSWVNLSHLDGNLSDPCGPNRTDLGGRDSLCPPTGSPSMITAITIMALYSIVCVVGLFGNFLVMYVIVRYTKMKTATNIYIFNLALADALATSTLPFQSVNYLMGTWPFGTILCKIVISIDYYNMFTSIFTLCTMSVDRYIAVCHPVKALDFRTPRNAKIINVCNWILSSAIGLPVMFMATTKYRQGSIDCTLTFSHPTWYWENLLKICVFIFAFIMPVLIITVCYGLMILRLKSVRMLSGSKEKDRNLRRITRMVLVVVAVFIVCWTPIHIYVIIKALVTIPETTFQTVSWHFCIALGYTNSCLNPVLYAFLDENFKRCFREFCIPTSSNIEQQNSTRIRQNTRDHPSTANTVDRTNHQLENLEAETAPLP
T1 sequence (P41145 whole entry): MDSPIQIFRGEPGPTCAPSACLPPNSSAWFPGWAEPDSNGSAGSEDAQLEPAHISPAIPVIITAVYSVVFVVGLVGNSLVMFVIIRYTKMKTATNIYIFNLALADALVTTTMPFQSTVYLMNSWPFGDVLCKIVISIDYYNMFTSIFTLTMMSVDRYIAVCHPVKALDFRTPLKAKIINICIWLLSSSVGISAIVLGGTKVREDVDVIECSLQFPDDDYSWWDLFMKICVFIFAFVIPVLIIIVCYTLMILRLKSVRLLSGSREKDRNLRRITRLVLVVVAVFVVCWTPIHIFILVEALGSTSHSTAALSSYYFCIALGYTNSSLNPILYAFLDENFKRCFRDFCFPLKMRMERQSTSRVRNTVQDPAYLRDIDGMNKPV

Compound	Selectivity (MOR/KOR) [1]	IC50 [1] [nM]	IC50 (mu opioid receptor (MOR)) [nM]
CCc1cc(F)c2nc(N3CC[C@H](N[C@@H]4CCCOC4)C[C@H]3C)c(-c3cc(C)no3)c(C)c2c1 [Compound 142]	+++ (between 100- to 1000-fold selective)	< 1	10 to 100
CCc1cc(F)c2nc(N3CCN(CC4(O)CCOCC4)C[C@H]3C)c(-c3nc(C)no3)c(C)c2c1 [Compound 206]	++++ (more than 1000-fold selectivity over MOR)	1 to 10	> 1000
CCc1cc(F)c2nc(N3CCN(C4CCOCC4)C[C@@H]3C)c(-c3nc(C)no3)c(C)c2c1 (single isomer, unassigned) [Compound 28]	++++ (more than 1000-fold selectivity over MOR)	1 to 10	> 1000
CCc1cc(-c2ccnn2C)c2nc(N3CCC(N[C@@H]4CCOC[C@H]4F)CC3)c(-c3ccn(C)n3)c(C)c2c1 [Compound 22, 1-(6-ethyl-4-methyl-3-(1-methyl-1H-pyrazol-3-yl)-8-(1-methyl-1H-pyrazol-5-yl)quinolin-2-yl)-N-((3S,4R)-3-fluorotetrahydro-2H-pyran-4-yl)piperidin-4-amine]	++ (between 10- and 100-fold selectivity)	1 to 10	100 to 1000
CCc1cc(F)c2nc(N3CCN(C(=O)[C@H](C)N(CC)CC)C[C@H]3C)c(-c3cc(C)no3)c(C)c2c1 [Compound 164]	+++ (between 100- to 1000-fold selective)	10 to 100	> 1000
CCc1cc(F)c2nc(N3CCC(N[C@H]4CCOC[C@@H]4O)CC3)c(-c3cc(C)n(C)n3)c(C)c2c1 [Compound 16, (3R,4S)-4-((1-(3-(1,5-dimethyl-1H-pyrazol-3-yl)-6-ethyl-8-fluoro-4-methylquinolin-2-yl)piperidin-4-yl)amino)tetrahydro-2H-pyran-3-ol]	++ (between 10- and 100-fold selectivity)	1 to 10	100 to 1000
CCc1cc(F)c2nc(N3CC[C@H](N[C@@H]4CCCOC4)C[C@H]3C)c(-c3ccn(C)n3)c(C)c2c1 [Compound 122]	+++ (between 100- to 1000-fold selective)	< 1	10 to 100
CCc1cc(F)c2nc(N3CCC(N[C@@H]4CCCC(F)(F)C4)CC3)c(-c3ccn(C)n3)c(C)c2c1 [Compound 74]	++ (between 10- and 100-fold selectivity)	1 to 10	100 to 1000
CCc1cc(C#N)c2nc(N3CCC(N[C@H]4CCOC[C@@H]4F)CC3)c(-c3ccn(C)n3)c(C)c2c1 [Compound 77]	+++ (between 100- to 1000-fold selective)	< 1	100 to 1000
COc1cc(F)c2nc(N3CCN(CC4CCOCC4)C[C@H]3C)c(-c3nc(C)no3)c(C)c2c1 [Compound 37, (R)-5-(8-fluoro-6-methoxy-4-methyl-2-(2-methyl-4-((tetrahydro-2H-pyran-4-yl)methyl)piperazin-1-yl)quinolin-3-yl)-3-methyl-1,2,4-oxadiazole]	++ (between 10- and 100-fold selectivity)	≥ 100	> 1000
CCc1cc(F)c2nc(N3CCN(C(=O)CN(CC)CC)C[C@H]3C)c(-c3ccn(C)n3)c(C)c2c1 [Compound 176]	+++ (between 100- to 1000-fold selective)	1 to 10	> 1000
CCc1cc(F)c2nc(N3CC[C@@H](NC[C@@H]4CCOC4)[C@@H](F)C3)c(-c3ccn(C)n3)c(C)c2c1 [Compound 204]	++++ (more than 1000-fold selectivity over MOR)	< 1	100 to 1000
CCc1cc(F)c2nc(N3CCNC4CC43)c(-c3nc(C)no3)c(C)c2c1 (stereo not drawn) [Compound 64]	++ (between 10- and 100-fold selectivity)	≥ 100	> 1000
CCc1cc(F)c2nc(N3CCN(/C(=N/C#N)NC[C@H](Cc4ccc(O)cc4)N(C)C)C[C@H]3C)c(-c3nc(C)no3)c(C)c2c1 [Compound 48]	+ (less than 10-fold selectivity)	10 to 100	100 to 1000
CCc1cc(-c2ccnn2C)c2nc(N3CCN(C[C@H]4CCOC4)C[C@H]3C)c(-c3ccn(C)n3)c(C)c2c1 [Compound 98]	+++ (between 100- to 1000-fold selective)	10 to 100	> 1000
